Measurements as given in patent publication US11872210B2, “Thiol isomerases inhibitors and use thereof” (WESTERN NEW ENGLAND UNIVERSITY, priority 2017, dated 2024).

How the values were obtained:
PDI = biological target: T1, PDI (Homo sapiens, UniProt P07237); assay: Insulin-based turbidometric assay of thiol isomerase inhibitory activity (PDI); assay type: biochemical; conditions: insulin turbidity assay, 6 point dose curve
T1 construct: purchased AbCam (Cambridge Mass.)
Text: (§1) Recombinant thiol isomerases were purchased from AbCam (Cambridge Mass.), recombinant insulin (bovine), bacitracin, dithiothreitol (DTT) buffers and all other chemicals were purchased from Sigma Aldrich (St. Louis, Mo.; while 384 well clear bottom plates were purchased from Corning (Corning, N.Y.).
(§2) The catalytic reduction of insulin by thiol isomerases in the presence of DTT results in aggregation of insulin chains. The turbidity of insulin aggregation can be monitored spectrophotometrically at an optical density (OD) at 650 nm. This approach has been used by multiple groups to identify thiol isomerase inhibitors in either a kinetic or endpoint fashion. A final concentration of either 10 μg/mL PDI, 30 μg/mL ERp5, 10 μg/mL ERp72 or 10 μg/mL thioredoxin, 125 μM insulin and 2 mM ethylenediaminetetraacetic acid (EDTA) in 30 μL of 100 mM potassium phosphate buffer was added to each experimental well plate, while negative control wells lacked any thiol isomerase. Lead compounds were diluted in a 6 point dose curve and the turbidity of insulin aggregation was measured kinetically each minute for 75 minutes using a Spectramax M3 plate reader (Molecular Devices, Sunnyvale, Calif.) Specificity assay utilized the insulin turbidity assay as well.

MDA-MB-231 cells = assay: PrestoBlue cell proliferation assay, MDA-MB-231; assay type: cell-based
Procedure: (§3) Cells were plated at 6,000 cells/well in a 96-well plate and treated with the indicated concentration of zafirlukast 24 hours later. Cells were allowed to grow for an additional 24 hours before alterations in growth were measured by the PrestoBlue cell proliferation assay in triplicate. Fluorescence readings with an excitation at 570 nm and emission of 600 nm were collected and treated samples were converted to a percentage of the untreated controls. OVCar8 (human ovarian cancer cell line), HCT116 (human colon cancer), HeLa (cervical cancer cell line) and MDA-MB-231 (breast cancer cell line) cell lines were examined for their ability to inhibit cell proliferation. […] Table 1 illustrates the results of a cell proliferation assay testing zafirlukast against OVCar8 cells, HCT116 cells, HeLa cells and MDA-MB-231 cells.

HCT116 cells = assay: PrestoBlue cell proliferation assay, HCT116; assay type: cell-based, human; conditions: HCT116, colon cancer, 24 hours treatment
Procedure: as §3

[1] = tested on: EGFR activation and downstream signaling (STAT3 phosphorylation); assay: Western blot of EGFR signaling in HCT116 cells; assay type: cell-based, human; conditions: 24 hours
Procedure: HCT116 (human colon cancer) cells were incubated with drug for 24 hours and total cellular extracts prepared. Protein levels were normalized, protein loaded on SDS-polyacrylamide gels and then electrophoresed before transferring to a PVDF membrane. The membranes were probed with primary antibodies of interest, followed by secondary antibodies conjugated with horseradish peroxidase.

[2] = tested on: integrin αIIbβ3 on washed platelets; assay: Integrin activation (PAC-1 antibody binding) by flow cytometry; assay type: cell-based, human; conditions: CRP-XL stimulated
Procedure: Human Platelet Preparation: 50 mL of blood was drawn from drug free, consenting individuals, into a syringe containing 5 mL sodium citrate (4% w/v) and 7.5 mL warmed ACD (85 mM sodium citrate, 71 mM citric acid and 110 mM glucose). Blood was centrifuged at 102 g for 20 minutes to obtain platelet-rich plasma (PRP), which was then decanted and 104 prostacyclin (PGI2 125 μg/mL, solubilized in ethanol) added. Platelets were pelleted by centrifugation at 1413 g for 10 minutes, platelet poor plasma was discarded and the pellet resuspended in 25 mL Tyrode's-HEPES buffer (134 mM NaCl, 2.9 mM KCl, 0.34 mM Na2HPO4, 12 mM NaHCO3, 20 mM HEPES, 1 mM MgCl2 and 5 mM glucose pH 7.3), 3 mL of ACD and 10 μL PGI2 were added and then following centrifugation at 1413 g for 10 minutes, the platelet pellet was re-suspended to the appropriate cell density using Tyrode's buffer. […]
Flow Cytometry: 5 μL platelets (2×10^8 cells/mL) was added to 42 μL HEPES-buffered saline with 1 mM Ca2+. […] Samples were then fixed with 450 μL of 0.2% (v/v) paraformaldehyde and analyzed on an accuri C6 flow cytometer (BD Biosciences, UK), with the threshold set to 20,000. Platelet populations were gated and 10,000 events recorded.
Washed platelets (2×10^8 cells/mL) were incubated with vehicle, zafirlukast (0.6-10 μM) or montelukast (0.6-10 μM) for 5 minutes. […] Data were analyzed using one-way ANOVA, n=3.

ERp72 = biological target: T2, ERp72 (Homo sapiens, UniProt P13667); assay: Insulin-based turbidometric assay of thiol isomerase inhibitory activity (ERp72); assay type: biochemical; conditions: insulin turbidity assay, 6 point dose curve
T2 construct: purchased AbCam (Cambridge Mass.)
T2 sequence (P13667 21-645): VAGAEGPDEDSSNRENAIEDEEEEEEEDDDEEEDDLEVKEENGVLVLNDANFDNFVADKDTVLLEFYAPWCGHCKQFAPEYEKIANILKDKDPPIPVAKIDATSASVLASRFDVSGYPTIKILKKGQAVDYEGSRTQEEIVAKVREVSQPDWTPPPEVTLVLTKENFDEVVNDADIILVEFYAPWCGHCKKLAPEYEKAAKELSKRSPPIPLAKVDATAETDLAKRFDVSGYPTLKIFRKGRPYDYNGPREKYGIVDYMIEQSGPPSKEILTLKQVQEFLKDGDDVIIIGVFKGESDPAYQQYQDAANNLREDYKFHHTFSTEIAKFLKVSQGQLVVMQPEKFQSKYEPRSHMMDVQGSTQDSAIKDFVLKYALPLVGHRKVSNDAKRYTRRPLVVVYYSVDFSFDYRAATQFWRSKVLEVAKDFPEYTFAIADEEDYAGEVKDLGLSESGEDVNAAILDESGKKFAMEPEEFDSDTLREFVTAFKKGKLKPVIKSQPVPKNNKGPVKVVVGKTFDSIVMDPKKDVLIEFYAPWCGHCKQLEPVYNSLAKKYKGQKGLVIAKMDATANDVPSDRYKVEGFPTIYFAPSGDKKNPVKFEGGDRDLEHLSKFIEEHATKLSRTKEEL
Text: as §1, §2

T1 sequence (P07237 18-508): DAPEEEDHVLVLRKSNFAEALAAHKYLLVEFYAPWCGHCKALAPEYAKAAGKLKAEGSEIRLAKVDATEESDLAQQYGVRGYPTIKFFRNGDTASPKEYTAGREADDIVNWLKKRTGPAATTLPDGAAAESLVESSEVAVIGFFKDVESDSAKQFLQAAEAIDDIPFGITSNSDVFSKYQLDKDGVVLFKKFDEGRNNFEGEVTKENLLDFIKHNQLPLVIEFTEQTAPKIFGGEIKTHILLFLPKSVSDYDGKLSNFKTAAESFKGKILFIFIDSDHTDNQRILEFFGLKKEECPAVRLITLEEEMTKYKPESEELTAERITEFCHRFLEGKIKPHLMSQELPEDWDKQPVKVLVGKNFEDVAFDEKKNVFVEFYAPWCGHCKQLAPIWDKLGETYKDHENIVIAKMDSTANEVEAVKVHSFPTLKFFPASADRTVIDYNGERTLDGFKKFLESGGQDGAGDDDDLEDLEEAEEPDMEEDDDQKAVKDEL

inhibitory range on PDI (PDI): 30 to 300 µM
IC50 (MDA-MB-231 cells; Homo sapiens, MDA-MB-231, breast cancer, 24 hours treatment): 100 µM
IC50 (HCT116 cells): 5 µM
IC50 (HCT116 cells; Homo sapiens, HCT-116, 24 h): 5 to 10 µM
inhibitory range on ERp72 (ERp72): 10 to 300 µM
SMILES: COc1cc(C(=O)NS(=O)(=O)c2ccccc2C)ccc1Cc1cn(C)c2ccc(NC(=O)OC3CCCC3)cc12 [zafirlukast, 4-(5-cyclopentyloxycarbonylamino-1-methylindol-3-ylmethyl)-3-methoxy-N-o-tolylsulfonylbenzamide]
sensitivity of cell proliferation (in words) (MDA-MB-231 cells; MDA-MB-231, compared with OVCar8 and HCT116): less sensitive
inhibition of EGFR activation and downstream signaling (STAT3 phosphorylation), in words [1]: almost complete inhibition
cell-surface bound PAC-1 antibody (fluorescence) ([2]; 10 μM, vehicle 1623 Au): 748.5 Au
inhibition at 10 µM ([2]; Homo sapiens, Platelet, PAC-1 binding): 54%
